Source: ChEMBL document CHEMBL4411338, “Convenient framework of poly functionalized (E)-2-benzylideno-(Z)-carbazolylideno cyanoacetamides via rearrangements as an efficient antibiofilm inhibitors with SAR study” (Bioorg Med Chem, 2019)
The source made the active and inactive calls. No cut-off for these calls is given here.

Columns and labels:
Klebsiella pneumoniae [1] = experiment: Antibiofilm activity against carbapenem-resistant Klebsiella pneumoniae assessed as disruption of biofilm at 200 ug/ml after 24 hrs by crystal violet staining based ELISA relative to control; type: functional
Pseudomonas aeruginosa [2] = experiment: Antibiofilm activity against carbenicillin-resistant Pseudomonas aeruginosa assessed as disruption of biofilm at 200 ug/ml after 24 hrs by crystal violet staining based ELISA relative to control; type: functional
Pseudomonas fluorescens = experiment: Antibiofilm activity against tetracycline-resistant Pseudomonas fluorescens assessed as disruption of biofilm at 200 ug/ml after 24 hrs by crystal violet staining based ELISA relative to control; type: functional
Priestia megaterium = experiment: Antibiofilm activity against ofloxacin-resistant Bacillus megaterium assessed as disruption of biofilm at 200 ug/ml after 24 hrs by crystal violet staining based ELISA relative to control; type: functional
Klebsiella pneumoniae [3] = experiment: Antibiofilm activity against tetracycline-resistant Klebsiella pneumoniae assessed as disruption of biofilm at 200 ug/ml after 24 hrs by crystal violet staining based ELISA relative to control; type: functional
Escherichia coli [4] = experiment: Antibiofilm activity against carbapenem-resistant Escherichia coli assessed as disruption of biofilm at 200 ug/ml after 24 hrs by crystal violet staining based ELISA relative to control; type: functional
Bacillus subtilis = experiment: Antibiofilm activity against tetracycline-resistant Bacillus subtilis assessed as disruption of biofilm at 200 ug/ml after 24 hrs by crystal violet staining based ELISA relative to control; type: functional
Escherichia coli [5] = experiment: Antibiofilm activity against carbenicillin-resistant Escherichia coli assessed as disruption of biofilm at 100 ug/ml after 24 hrs by crystal violet staining based ELISA relative to control; type: functional
Klebsiella pneumoniae [6] = experiment: Antibiofilm activity against tetracycline-resistant Klebsiella pneumoniae assessed as disruption of biofilm at 100 ug/ml after 24 hrs by crystal violet staining based ELISA relative to control; type: functional
Klebsiella pneumoniae [7] = experiment: Antibiofilm activity against carbenicillin-resistant Klebsiella pneumoniae assessed as disruption of biofilm at 200 ug/ml after 24 hrs by crystal violet staining based ELISA relative to control; type: functional
Klebsiella pneumoniae [8] = experiment: Antibiofilm activity against carbenicillin-resistant Klebsiella pneumoniae assessed as disruption of biofilm at 10 ug/ml by crystal violet/acridine orange staining based fluorescence microscopic analysis; type: functional, organism-based
Escherichia coli [9] = experiment: Antibiofilm activity against carbenicillin-resistant Escherichia coli assessed as disruption of biofilm at 10 ug/ml by crystal violet/acridine orange staining based fluorescence microscopic analysis; type: functional, organism-based
Pseudomonas aeruginosa [10] = experiment: Antibiofilm activity against carbenicillin-resistant Pseudomonas aeruginosa assessed as disruption of biofilm at 100 ug/ml after 24 hrs by crystal violet staining based ELISA relative to control; type: functional
HEK293 [11] = experiment: Cytotoxicity against HEK293 cells assessed as reduction in cell viability up to 75 ug/ml after 24 hrs by MTT assay; type: cell-based; conditions: human, hek293, 24 h
Pseudomonas aeruginosa [12] = experiment: Antibiofilm activity against carbenicillin-resistant Pseudomonas aeruginosa assessed as disruption of biofilm at 10 ug/ml by crystal violet/acridine orange staining based fluorescence microscopic analysis; type: functional, organism-based
Escherichia coli [13] = experiment: Reduction in reactive oxygen species level in carbapenem-resistant Escherichia coli biofilm at 10 ug/ml measured after 2 to 6 hrs by DCFH-DA probe based UV-spectrofluorimetric method; type: functional, organism-based
Klebsiella pneumoniae [14] = experiment: Antibiofilm activity against tetracycline-resistant Klebsiella pneumoniae assessed as disruption of biofilm at 10 ug/ml by crystal violet/acridine orange staining based fluorescence microscopic analysis; type: functional, organism-based
HEK293 [15] = experiment: Cytotoxicity against HEK293 cells assessed as reduction in cell viability at >75 ug/ml after 24 hrs by MTT assay; type: cell-based; conditions: human, hek293, 24 h
Escherichia coli [16] = experiment: Antibiofilm activity against carbapenem-resistant Escherichia coli biofilm assessed as reactive oxygen species generation at 10 ug/ml after 1 hr by DCFH-DA probe based UV-spectrofluorimetric method relative to control; type: functional

SMILES | inhibition at 200 µg/mL (Klebsiella pneumoniae [1]) [%] | inhibition at 200 µg/mL (Pseudomonas aeruginosa [2]) [%] | inhibition at 200 µg/mL (Pseudomonas fluorescens) [%] | inhibition at 200 µg/mL (Priestia megaterium) [%] | inhibition at 200 µg/mL (Klebsiella pneumoniae [3]) [%] | inhibition at 200 µg/mL (Escherichia coli [4]) [%] | inhibition at 200 µg/mL (Bacillus subtilis) [%] | inhibition at 100 µg/mL (Escherichia coli [5]) [%] | inhibition at 100 µg/mL (Klebsiella pneumoniae [6]) [%] | inhibition at 200 µg/mL (Klebsiella pneumoniae [7]) [%] | Activity (Klebsiella pneumoniae [8]) | Activity (Escherichia coli [9]) | inhibition at 100 µg/mL (Pseudomonas aeruginosa [10]) [%] | Activity (HEK293 [11]) | Activity (Pseudomonas aeruginosa [12]) | Activity (Escherichia coli [13]) | Activity (Klebsiella pneumoniae [14]) | Activity (HEK293 [15]) | fold change (FC) (Escherichia coli [16])
Cc1cccc2c3c([nH]c12)C(=C(/C#N)C(N)=O)/C(=C/c1cccs1)CC3 | 12 | 24.1 | 0 | 17.6 | 27.9 | 22.8 | 12 | – | – | – | – | – | – | – | – | – | – | – | –
Cc1ccc2[nH]c3c(c2c1)CCC(=C\c1ccccn1)/C3=C(\C#N)C(N)=O | 32 | 17 | 29 | 18.2 | 0 | 21.7 | 26 | – | – | – | – | – | – | – | – | – | – | – | –
Cc1cccc2c3c([nH]c12)C(=C(/C#N)C(N)=O)/C(=C/c1ccccc1)CC3 | 21 | 4.3 | 0 | 31.4 | 1.9 | 14.6 | 23 | – | – | – | – | – | – | – | – | – | – | – | –
Cc1ccc2c3c([nH]c2c1)C(=C(/C#N)C(N)=O)/C(=C/c1ccccc1)CC3 | 14 | 17 | 26.4 | 13.1 | 15.6 | 16 | 45 | – | – | – | – | – | – | – | – | – | – | – | –
Cc1ccc2[nH]c3c(c2c1)CCC(=C\c1cccc(F)c1)/C3=C(\C#N)C(N)=O | 29 | 25.3 | 15 | 21.1 | 0 | 24.8 | 10 | – | – | – | – | – | – | – | – | – | – | – | –
Cc1ccc2[nH]c3c(c2c1)CCC(=C\c1cccs1)/C3=C(\C#N)C(N)=O | 74 | 29.3 | 73 | 4.5 | 81 | 70 | 28 | 78 | 78 | – | – | – | – | – | – | – | – | – | –
COc1ccc(/C=C2\CCc3c([nH]c4cc(C)ccc34)\C2=C(\C#N)C(N)=O)cc1OC | 12 | 15.3 | 5 | 10.9 | 18.3 | 17.2 | 32 | – | – | – | – | – | – | – | – | – | – | – | –
CCOc1ccc(/C=C2\CCc3c([nH]c4ccc(C)cc34)\C2=C(\C#N)C(N)=O)cc1OCC | 16 | 29.3 | 18 | 11.2 | 23.3 | 27.4 | 8 | – | – | – | – | – | – | – | – | – | – | – | –
COc1ccc(/C=C2\CCc3c([nH]c4c(C)cccc34)\C2=C(\C#N)C(N)=O)cc1OC | 16 | 12.5 | 0 | 6.1 | 23 | 84.6 | 31 | – | – | – | – | – | – | – | – | – | – | – | –
Cc1ccc2[nH]c3c(c2c1)CCC(=C\c1cccc(Br)c1)/C3=C(\C#N)C(N)=O | 20.7 | 13.2 | 12 | 6.3 | 28.3 | 33.5 | 10 | – | – | – | – | – | – | – | – | – | – | – | –
Cc1ccc2c3c([nH]c2c1)C(=C(/C#N)C(N)=O)/C(=C/c1cccs1)CC3 | 18 | 18.9 | 28 | 15.7 | 3.5 | 9.8 | 21 | – | – | – | – | – | – | – | – | – | – | – | –
O=C(O)c1cn(C2CC2)c2cc(N3CCNCC3)c(F)cc2c1=O [CIPROFLOXACIN] | 25.5 | 49.7 | 38 | 56.3 | 43 | 45 | 23 | – | – | – | – | – | – | – | – | – | – | – | –
Cc1ccc2[nH]c3c(c2c1)CCC(=C\c1ccc(F)cc1)/C3=C(\C#N)C(N)=O | 17 | 19.3 | 11 | 32.4 | 0 | 13.4 | 56 | – | – | – | – | – | – | – | – | – | – | – | –
COc1ccc(/C=C2\CCc3c([nH]c4ccc(C)cc34)\C2=C(\C#N)C(N)=O)cc1OC | 78 | 67 | 31 | 17.1 | 78 | 80 | 21 | 78 | – | 82 | – | – | – | – | – | – | – | – | –
Cc1ccc2[nH]c3c(c2c1)CCC(=C\c1ccccc1)/C3=C(\C#N)C(N)=O | 71 | 81 | 31 | 21.4 | 71 | 85 | 23 | 89 | – | – | Active | Active | 79 | Non-Toxic | Active | Active | Active | Toxic | 2
